The structures appear in SMILES notation.

We go through 1 compound from patent publication US7803966B2, “Cosmetic and pharmaceutical compositions comprising compounds that display retinoid like activities” (Johnson & Johnson Consumer France, S.A.S., priority 2007, dated 2010).

What all share (assay type): cell-based
Experiment [1] relates to HB-EGF. Kind of experiment: HB-EGF gene expression in ex vivo human skin explant (QRT-PCR). The protocol:
(§1) Ex vivo skin explants were prepared from skin abdominal biopsy after plastic surgery. Skin explants were maintained in culture medium at 37° C. in a water saturated atmosphere for 5 days. […] After 48 hours, half of the explants were taken and epidermal mRNA was extracted and expression of HB-EGF and IL8 genes was measured by Quantitative real time PCR (QRT-PCR). Explants were also fixed and slices were prepared and mounted on glass slides to be examined. Cell proliferation was also assessed by staining the cells with an antibody directed to the Ki67 protein and then counting the number of positive cell per mm (Table 4).

Experiment [2] has as its system HB-EGF. Kind of experiment: HB-EGF gene expression in human squamous carcinoma cells (QRT-PCR). Particulars: vs untreated control. The protocol:
Compound G was tested on Human Squamous Carcinoma Cells for its ability to induce epidermal proliferation factor HB-EGF. For this assay, Human squamous carcinoma cells were seeded in 25 cm^2 flask and cultivated until 80% of cell confluence was reached. Test compounds were added to the culture medium and cells were incubated again 48 hours. At the end of the incubation cells were trypsinized and pelleted. […] was extracted and gene expression was measured with quantitative real time Polymerase Chain Reaction (QRT-PCR) using actin gene expression as internal standard. Variation of gene expression is expressed in percent versus the untreated control. Effect of Compound G on HB-EGF gene expression, assessed by real time QPCR was +187% and +370% vs. control at doses of 10^−6 and 10^−5 M respectively.

In experiment [3] the test system is Ex vivo human skin explant. Kind of experiment: Cell proliferation (Ki67 staining) in ex vivo human skin explant. Particulars: 10^−3 M topical, Control 90, Vehicle 45. The method, then: Ex vivo skin explants were prepared from skin abdominal biopsy after plastic surgery. Skin explants were maintained in culture medium at 37° C. in a water saturated atmosphere for 5 days. Compounds G was diluted in a mixture of propylene glycol (30%) and ethanol (70%) at 10^-3 M and topically applied on the explant surface. After 48 hours, half of the explants were taken and epidermal mRNA was extracted and expression of HB-EGF and IL8 genes was measured by Quantitative real time PCR (QRT-PCR). Explants were also fixed and slices were prepared and mounted on glass slides to be examined. Cell proliferation was also assessed by staining the cells with an antibody directed to the Ki67 protein and then counting the number of positive cell per mm (Table 4).

Experiment [4] has as its system IL8. Kind of experiment: IL8 gene expression in human squamous carcinoma cells (QRT-PCR). To be noted: for Effect on IL8 expression (48 h)vs control: vs untreated control.
The subject of experiment [5] is IL8. Kind of experiment: IL8 gene expression in ex vivo human skin explant (QRT-PCR). The protocol:
as §1

For `O=C(O)COc1ccc(/N=N/c2c(O)ccc3cc(Br)ccc23)cc1` [Compound G], the “Effect on HB EGF expression (48 h) vs vehicle” value in experiment [1] (10^−3 M topical) is 288%; in experiment [1] (10^−4 M topical), 159%. In addition, the “Effect on HB EGF expression vs control(48 h)” value came to 370% in experiment [2] (10^−5 M); 370% in experiment [2] (10^−5 M, listed as compound G); 187% in experiment [2] (10^−6 M); 187% in experiment [2] (10^−6 M, listed as compound G). In experiment [3], the “Cell proliferation (Ki67 + cells)” value stood at 150 positive cell per mm. Also, the “Effect on IL8 expression (48 h)vs control” value worked out at 44% in experiment [4] (10^−5 M) and 10% in experiment [4] (10^−6 M). Moreover, the “IL8 expression induction (in words)” value in experiment [4] ("at this dose" (10^−6 and 10^−5 M), 48 h) was “did not significantly induce IL8 expression”. The “Effect on IL8 expression (48h)vs vehicle” value in experiment [5] (10^−3 M topical) stood at 76%; in experiment [5] (10^−4 M topical), 65%.
